Data: PubChem BioAssay (NCI)
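How tested: cells in 96-well plates exposed to compound for 48 hours at five concentrations. Abbreviation: GI50, concentration required for 50% inhibition of growth. TGI denotes the concentration required for complete inhibition of growth.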

How the values were obtained:
Assay in all cases: NCI tumour cell line growth inhibition, 48 h
[1] = system: SR leukemia
[2] = system: HL-60(TB) leukemia
[3] = system: SK-OV-3 ovarian
[4] = system: NCI/ADR-RES ovarian
[5] = system: SK-MEL-5 melanoma
[6] = system: RPMI-8226 leukemia
[7] = system: SK-MEL-28 melanoma
[8] = system: MOLT-4 leukemia
[9] = system: NCI-H23 lung
[10] = system: SNB-75 CNS

| SMILES | TGI [1] [µM] | TGI [2] [µM] | TGI [3] [µM] | TGI [4] [µM] | TGI [5] [µM] | TGI [6] [µM] | TGI [7] [µM] | TGI [8] [µM] | TGI [9] [µM] | TGI [10] [µM] | GI50 [2] [µM] | GI50 [3] [µM] | GI50 [4] [µM] | GI50 [5] [µM] | GI50 [7] [µM] | GI50 [8] [µM] | GI50 [9] [µM] | GI50 [1] [µM] | GI50 [6] [µM] |
| --- | --- | --- | --- | --- | --- | --- | --- | --- | --- | --- | --- | --- | --- | --- | --- | --- | --- | --- | --- |
| Cc1cc2ccccc2n1CC(=O)N1CCCC1 | > 100 | > 100 | > 100 | > 100 | > 100 | > 100 | > 100 | > 100 | > 100 | > 100 | – | – | – | – | – | – | – | – | – |
| CC1CC[C@@]2(OC1)O[C@H]1C[C@H]3[C@@H]4CC[C@H]5C[C@@H](OC6OC(CO)C(OC7OC(CO)C(OC8OC(CO)C(O)C(OC9OC(C)C(OC%10OC(C)C(O)C(O)C%10O)C(O)C9O)C8OC8OCC(O)C(O)C8O)C(O)C7O)C(O)C6O)CC[C@]5(C)[C@H]4CC(=O)[C@]3(C)[C@H]1[C@@H]2C (some centres not stated) | 30.3 | 27.6 | 41.6 | 43.2 | 30.4 | 33.3 | 34.3 | 34.6 | 35.8 | 36.5 | – | – | – | – | – | – | – | – | – |
| COC(=O)/C=C\C(C#N)(C#N)N=Cc1ccc(C)s1 | 8.17 | 5.16 | 28.2 | 28.7 | 19.7 | > 32.5 | 9.64 | 5.82 | 6.69 | 19.9 | – | – | – | – | – | – | – | – | – |
| COCN1CCN=c2c1c1c3c(c4ccccc4n23)CCC1 | > 100 | > 100 | > 100 | > 100 | > 100 | > 100 | > 100 | > 100 | > 100 | > 100 | – | – | – | – | – | – | – | – | – |
| C=CC(C)(C)N[C@@H](C(=O)N1CCC[C@H]1c1nc(-c2nc(C(=O)OCC=C(C)C)c(C)o2)c(C)o1)C(C)C | 40.6 | 93.9 | 86.8 | 59 | 52 | 61.8 | 38.2 | 36.9 | 48.1 | > 100 | – | – | – | – | – | – | – | – | – |
| C=C1C(=O)O[C@H]2C/C(C)=C/CC/C(C)=C/CC[C@@](C)(O)[C@@H](I)C[C@@H]12 | 11.8 | 14.6 | 29.8 | 24.7 | 28.2 | 12.9 | 30 | > 26.2 | 2.43 | 25.1 | – | – | – | – | – | – | – | – | – |
| Cc1ccc(NC(=S)Nc2c(C)n(C)n(-c3ccccc3)c2=O)cc1 | > 100 | > 100 | > 100 | > 100 | > 100 | > 100 | > 100 | > 100 | > 100 | > 100 | – | – | – | – | – | – | – | – | – |
| Cc1cccc2nc3cccc(C(=O)NCCC[N+](C)(CCCNC(=O)c4cccc5nc6cccc(C)c6nc45)Cc4c([N+](=O)[O-])ncn4C)c3nc12 | > 1100 | – | > 1100 | > 1100 | 366 | 0.521 | > 1100 | – | > 1100 | > 1100 | 48.6 | > 1100 | 131 | 12.1 | 403 | 8.38 | 370 | – | – |
| O=c1c2ccccc2n2nnc3ccc(NCCCNCCNCCCNc4ccc5nnn6c7ccccc7c(=O)c4c56)c1c32 | > 50 | 23.5 | > 41.2 | > 25.5 | > 50 | > 12.4 | > 39.3 | > 21.2 | 15.3 | > 27.2 | – | – | – | – | – | – | – | – | – |
| O=C(OCCN1CCCCC1)C(c1ccccc1)C1(O)CCSCC1 (configuration not stated) | > 100 | > 100 | > 100 | > 100 | > 100 | > 100 | > 100 | > 100 | > 100 | > 100 | – | – | – | – | – | – | – | – | – |
| CC(C)(C)OC(=O)NC(Cc1ccc(O)cn1)C(N)=O (configuration not stated) | > 100 | > 100 | – | > 100 | > 100 | > 100 | > 100 | > 100 | > 100 | > 100 | – | – | – | – | – | – | – | – | – |
| Cc1nccn1S(=O)(=O)c1ccc(Br)cc1Br | 78.3 | 51.5 | > 100 | > 100 | 43.9 | 47.4 | > 100 | 96.1 | > 100 | 57.9 | – | – | – | – | – | – | – | – | – |
| Cn1c(-c2ccc[se]2)ccc1-c1ccc(CO)[se]1 | 53.5 | > 100 | 42.5 | 52.2 | > 100 | > 100 | > 100 | 98.2 | > 84.3 | > 79.9 | – | – | – | – | – | – | – | – | – |
| N#Cc1c(N2CCCC2)ncn(Cc2ccccc2)c1=S | > 100 | > 100 | > 100 | > 100 | > 100 | > 100 | > 100 | > 100 | > 100 | > 95.2 | – | – | – | – | – | – | – | – | – |
| N/N=C1/C(=N/O)CCc2nonc21 | > 100 | > 100 | > 100 | > 100 | > 100 | > 100 | > 100 | > 100 | > 100 | > 100 | – | – | – | – | – | – | – | – | – |
| Cc1cc(Nc2ccc(N=Nc3ccc(O)c4ncccc34)cc2)nc(C)n1 | > 100 | 16.5 | > 72.7 | 61 | 26.3 | 32.5 | > 68.7 | 48.3 | > 54.2 | 43.6 | – | – | – | – | – | – | – | – | – |
| O=c1[nH]c2ccccc2nc1/C=C(\O)C(F)F | > 100 | > 100 | > 100 | > 100 | > 100 | > 100 | > 100 | > 100 | > 100 | – | – | – | – | – | – | – | – | – | – |

| SMILES | TGI [1] [µM] | TGI [2] [µM] | TGI [3] [µM] | TGI [4] [µM] | TGI [5] [µM] | TGI [6] [µM] | TGI [7] [µM] | TGI [8] [µM] | TGI [9] [µM] | TGI [10] [µM] | GI50 [2] [µM] | GI50 [3] [µM] | GI50 [4] [µM] | GI50 [5] [µM] | GI50 [7] [µM] | GI50 [8] [µM] | GI50 [9] [µM] | GI50 [1] [µM] | GI50 [6] [µM] |
| --- | --- | --- | --- | --- | --- | --- | --- | --- | --- | --- | --- | --- | --- | --- | --- | --- | --- | --- | --- |
| CC(NC1=NCCO1)c1cccc([N+](=O)[O-])c1 (configuration not stated) | > 100 | > 100 | > 100 | > 100 | > 100 | > 100 | > 100 | > 100 | > 100 | > 100 | – | – | – | – | – | – | – | – | – |
| COC(=O)c1ccc(CCc2cc(O)ccc2O)cc1 | > 21 | 5.96 | > 78 | > 90.1 | 25.7 | 4.16 | 42.2 | 15.3 | > 54.9 | 21.2 | – | – | – | – | – | – | – | – | – |
| O=C(c1ccccc1)c1c(C(F)(F)F)n([O-])c2cc(Cl)c(Cl)cc2[n+]1=O | 0.724 | 2.06 | 8.99 | 6.36 | 5.13 | 1.15 | 7.19 | 1.56 | 1.11 | 2.58 | – | – | – | – | – | – | – | – | – |
| CCN(CC)C(=S)N/N=C/c1ccccn1 | > 54.8 | 4.09 | – | 0.692 | 0.542 | > 100 | > 100 | > 100 | – | 44.8 | – | – | – | – | – | – | – | – | – |
| Cc1ccc(-n2c(O)c3c(N)n[nH]c3c(C#N)c2=O)cc1 | > 100 | > 100 | > 100 | > 100 | > 100 | > 100 | > 100 | > 100 | > 100 | > 100 | – | – | – | – | – | – | – | – | – |
| S=C1C(=Nc2ccccc2)N(c2ccccc2)/C(=N\c2ccccn2)N1c1ccccc1 | 60.8 | > 100 | 36 | 33.7 | 27.2 | > 100 | 30.5 | > 100 | 25 | 28.3 | – | – | – | – | – | – | – | – | – |
| O=C1CCC2(CC1CCSc1ccccc1)OCCO2 (configuration not stated) | > 100 | > 100 | > 100 | > 100 | > 100 | > 100 | > 100 | > 100 | > 100 | > 100 | – | – | – | – | – | – | – | – | – |
| CCOC(=O)C1=C(C)C(C(=O)OC)/C(=C/c2cccc3cccnc23)C1=O (configuration not stated) | > 10 | > 10 | > 10 | > 10 | > 10 | > 10 | > 10 | > 10 | > 10 | > 10 | – | – | – | – | – | – | – | – | – |
| CCOC(=O)C(NC(=O)CC(C)C)(Nc1ccc(C(F)(F)F)cc1)C(F)(F)F (configuration not stated) | > 100 | 59.9 | > 100 | > 100 | > 100 | 93.8 | > 100 | > 100 | > 100 | 60.9 | – | – | – | – | – | – | – | – | – |
| Cc1cc(NS(=O)(=O)c2ccc(NC(=O)c3cccc4c(NNc5ccc(S(=O)(=O)N=C(N)N)cc5)c5ccccc5nc34)cc2)no1 | > 100 | 75.6 | > 100 | > 100 | > 100 | > 100 | > 100 | 74.9 | > 100 | 88.3 | – | – | – | – | – | – | – | – | – |
| Nc1ccccc1NC(=O)CCCCCCC(=O)Nc1ccc2c(c1)/C(=C/c1ccc[nH]1)C(=O)N2 | > 100 | > 100 | > 100 | > 100 | > 100 | > 100 | > 100 | > 100 | > 100 | – | 1.8 | 6.72 | > 100 | > 100 | > 100 | 2.9 | > 100 | 4.64 | 2.47 |
| N#CC(C#N)=Cc1c(O)ccc2ccccc12 | 13.6 | 15.7 | 34.7 | 64.7 | 26.2 | 38.6 | 28.9 | – | 26.9 | 17.9 | – | – | – | – | – | – | – | – | – |
| O=C(Nc1nnc(-c2ccccc2)o1)C(SC(=S)N1CCOCC1)c1ccccc1 (configuration not stated) | 83.7 | 36.3 | > 100 | 64.7 | 38.7 | > 100 | > 100 | 83.1 | 69 | > 100 | – | – | – | – | – | – | – | – | – |
| O=c1[nH]c2cc3cccnc3c(Cl)c2nc1C(F)(F)F | > 100 | > 100 | > 100 | > 100 | 29.8 | > 100 | > 100 | 83.2 | > 100 | 90.1 | – | – | – | – | – | – | – | – | – |
| O=C(NCCCCNCCCNC(=O)c1ccccc1)c1ccccc1 | > 100 | > 100 | > 100 | > 100 | > 100 | > 100 | > 100 | > 100 | > 100 | > 100 | – | – | – | – | – | – | – | – | – |
| Nc1ccc(-c2nc3cc(F)ccc3s2)cc1I | > 59.5 | > 100 | 32.9 | 54.3 | > 70.4 | > 100 | > 100 | > 100 | 18.9 | 33.8 | – | – | – | – | – | – | – | – | – |
| S=c1nc2[nH]c3ccc(Br)cc3c2n[nH]1 | 69.3 | 50.5 | > 100 | > 100 | > 100 | > 100 | > 100 | > 100 | – | 94.9 | – | – | – | – | – | – | – | – | – |
